In PubChem BioAssay AID2060495 (Molecular Pharmacology Branch, DTP, NCI, 2025):

Test system: 521955-158-R2-J5-PDC complex spheroid viability
Assay: Anticancer human tumor 521955-158-R2-J5-PDC patient-derived pancreatic carcinoma cell line growth inhibition [GQUAD]
Conditions: for IC50: curve of first compound; for viability, T/C: stronger effect = lower value
In short: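 Tumor cells were grown as complex spheroids with HUVEC endothelial cells and mesenchymal stem cells as stroma. G-quadruplex stabilizers were combined with targeted agents over half-log dilutions from near the clinical Cmax, or from 10 microM.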

[1] = second compound 0.0316 µM, first compound 0.0316 µM
[2] = second compound 0.0316 µM, first compound 0.1 µM
[3] = second compound 0.0316 µM, first compound 0.316 µM
[4] = second compound 0.0316 µM, first compound 1 µM
[5] = second compound 0.0316 µM, first compound 3.16 µM
[6] = second compound 0.0316 µM, first compound 10 µM
[7] = second compound 0.1 µM, first compound 0.0316 µM
[8] = second compound 0.1 µM, first compound 0.1 µM
[9] = second compound 0.1 µM, first compound 0.316 µM
[10] = second compound 0.1 µM, first compound 1 µM
[11] = second compound 0.1 µM, first compound 3.16 µM
[12] = second compound 0.1 µM, first compound 10 µM
[13] = second compound 0.316 µM, first compound 0.0316 µM
[14] = second compound 0.316 µM, first compound 0.1 µM
[15] = second compound 0.316 µM, first compound 0.316 µM
[16] = second compound 0.316 µM, first compound 1 µM
[17] = second compound 0.316 µM, first compound 3.16 µM
[18] = second compound 0.316 µM, first compound 10 µM
[19] = second compound 1 µM, first compound 0.0316 µM
[20] = second compound 1 µM, first compound 0.1 µM
[21] = second compound 1 µM, first compound 0.316 µM
[22] = second compound 1 µM, first compound 1 µM
[23] = second compound 1 µM, first compound 3.16 µM
[24] = second compound 1 µM, first compound 10 µM
[25] = second compound 3.16 µM, first compound 0.0316 µM
[26] = second compound 3.16 µM, first compound 0.1 µM
[27] = second compound 3.16 µM, first compound 0.316 µM
[28] = second compound 3.16 µM, first compound 1 µM
[29] = second compound 3.16 µM, first compound 3.16 µM
[30] = second compound 3.16 µM, first compound 10 µM
[31] = second compound 10 µM, first compound 0.0316 µM
[32] = second compound 10 µM, first compound 0.1 µM
[33] = second compound 10 µM, first compound 0.316 µM
[34] = second compound 10 µM, first compound 1 µM
[35] = second compound 10 µM, first compound 3.16 µM
[36] = second compound 10 µM, first compound 10 µM
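Further: spheroids exposed to agents for one week before reading.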
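Wherever viability, T/C is given: 100% = DMSO vehicle control viability.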

Question: Which results are given for `O=C(NO)c1cnc(N2CCN(S(=O)(=O)c3ccc4ccccc4c3)CC2)nc1` + CN(C)c1ccc(Nc2c3ccc(NC(=O)CCN4CCCC4)cc3nc3cc(NC(=O)CCN4CCCC4)ccc23)cc1?
Answer: IC50 (second compound 0.0316 µM): 0.703 µM; IC50 (second compound 0.1 µM): 0.668 µM; IC50 (second compound 0.316 µM): 0.491 µM; IC50 (second compound 1 µM): 0.55 µM; IC50 (second compound 3.16 µM): 0.734 µM; IC50 (second compound 10 µM): 0.376 µM; viability, T/C [1]: 127%; viability, T/C [2]: 105%; viability, T/C [3]: 95.3%; viability, T/C [4]: 30.6%; viability, T/C [5]: 0.19%; viability, T/C [6]: 0.15%; viability, T/C [7]: 120%; viability, T/C [8]: 124%; viability, T/C [9]: 94.7%; viability, T/C [10]: 26%; viability, T/C [11]: 0.16%; viability, T/C [12]: 0.1%; viability, T/C [13]: 118%; viability, T/C [14]: 115%; viability, T/C [15]: 58%; viability, T/C [16]: 31.6%; viability, T/C [17]: 0.13%; viability, T/C [18]: 0.12%; viability, T/C [19]: 121%; viability, T/C [20]: 116%; viability, T/C [21]: 60.9%; viability, T/C [22]: 37%; viability, T/C [23]: 0.15%; viability, T/C [24]: 0.12%; viability, T/C [25]: 109%; viability, T/C [26]: 142%; viability, T/C [27]: 87.5%; viability, T/C [28]: 37.7%; viability, T/C [29]: 0.28%; viability, T/C [30]: 0.13%; viability, T/C [31]: 94%; viability, T/C [32]: 94.1%; viability, T/C [33]: 53.7%; viability, T/C [34]: 17.1%; viability, T/C [35]: 0.27%; viability, T/C [36]: 0.21%

Question: Which IC50 (second compound 0.0316 µM) does the source give for `COc1ccc([C@@H](O)c2cc(-c3ncnc4cc(N5CCOCC5)ccc34)c(F)cc2Cl)nn1` + Cc1[nH]c2ccc(F)cc2c1-c1nc2c3cccnc3c3ncccc3c2[nH]1 here?
Answer: 3.52 µM

Question: And the IC50 (second compound 0.1 µM)?
Answer: 2.69 µM

Question: And the IC50 (second compound 0.316 µM)?
Answer: 3.7 µM

Question: And the IC50 (second compound 1 µM)?
Answer: 3.67 µM

Question: What about the IC50 (second compound 3.16 µM) of the same compound?
Answer: 1.96 µM

Question: And the IC50 (second compound 10 µM)?
Answer: 3.08 µM

Question: And the viability, T/C [1]?
Answer: 93%

Question: What about the viability, T/C [2] of the same compound?
Answer: 92.3%

Question: What about the viability, T/C [3] of the same compound?
Answer: 73.7%

Question: And the viability, T/C [4]?
Answer: 62.3%

Question: And the viability, T/C [5]?
Answer: 56%

Question: What about the viability, T/C [6] of the same compound?
Answer: 34.5%

Question: What about the viability, T/C [7] of the same compound?
Answer: 88.6%

Question: What about the viability, T/C [8] of the same compound?
Answer: 93%

Question: What about the viability, T/C [9] of the same compound?
Answer: 69.7%

Question: And the viability, T/C [10]?
Answer: 66.7%

Question: What about the viability, T/C [11] of the same compound?
Answer: 47.1%

Question: What about the viability, T/C [12] of the same compound?
Answer: 34.1%

Question: What about the viability, T/C [13] of the same compound?
Answer: 82.3%

Question: And the viability, T/C [14]?
Answer: 95.6%

Question: And the viability, T/C [15]?
Answer: 83.2%

Question: What about the viability, T/C [16] of the same compound?
Answer: 68.6%

Question: And the viability, T/C [17]?
Answer: 54.3%

Question: What about the viability, T/C [18] of the same compound?
Answer: 34.9%

Question: And the viability, T/C [19]?
Answer: 88.4%

Question: And the viability, T/C [20]?
Answer: 112%

Question: What about the viability, T/C [21] of the same compound?
Answer: 88.5%

Question: And the viability, T/C [22]?
Answer: 66.6%

Question: And the viability, T/C [23]?
Answer: 58.4%

Question: What about the viability, T/C [24] of the same compound?
Answer: 32.2%

Question: And the viability, T/C [25]?
Answer: 86.1%

Question: What about the viability, T/C [26] of the same compound?
Answer: 90.5%

Question: What about the viability, T/C [27] of the same compound?
Answer: 75.9%

Question: What about the viability, T/C [28] of the same compound?
Answer: 60.4%

Question: What about the viability, T/C [29] of the same compound?
Answer: 43.3%

Question: What about the viability, T/C [30] of the same compound?
Answer: 32.2%

Question: What about the viability, T/C [31] of the same compound?
Answer: 99.4%

Question: And the viability, T/C [32]?
Answer: 88.6%

Question: And the viability, T/C [33]?
Answer: 74.9%

Question: And the viability, T/C [34]?
Answer: 64.3%

Question: And the viability, T/C [35]?
Answer: 54.6%

Question: What about the viability, T/C [36] of the same compound?
Answer: 30.4%
